From patent publication US4954509A, “Isoquinoline derivatives and their use as analgesics” (Dr. Lo. Zambeletti S.p.A., priority 1988, dated 1990)
Structures can show the parent of a compound that is named as a salt. Where two headings read alike, the source gives them in different places.

Tests used:
[1] = test system: mice; assay: tail-flick test in mice; assay type: in vivo, mouse (male Charles River, Swiss Strain); settings: Mus musculus, sc, 0.5 h, subcutaneous; calculated as the free base; 30 min pretreatment
Protocol: (B) Tail-flick test in mice
The methodology employed is based on that described by D'Amour and Smith, J. Pharmacol. Exp. Ther. 72, 74/1941.
Male Charles River mice (Swiss Strain), 22-34g body weight were used. Animals were allowed food and water ad libitum and were randomized into groups of 10 prior to experimentation.
Test compounds were dissolved in either distilled water or distilled water plus 0.1 M AMS and administered by the subcutaneous route in a final volume of 10 ml/Kg. Control animals received 10 ml/kg of the appropriate vehicle alone. Following a pretreatment period of 30 min., the mice were again placed under the heat source and the reaction tine re-determined.
Percentage quantal protection was determined as the number of mice in which the reaction time was doubled compared to pretreatment values, expressed as a percentage of the total number of mice in the group.

[2] = biological target: T1, MU opiate receptor (Cavia porcellus, UniProt A0ACM8Q262); assay: opiate receptors binding, MU (3H-DAGO, guinea pig brain homogenate)
T1 construct: 3H-DAGO displacement
Protocol: Radio receptor binding to μ and K sites is performed on fresh guinea pig brain homogenate prepared according to Kosterlitz.
(§1) Whole brain without cerebellum is homogenized in 50 mM, Tris-buffer (pH 7.4 at 0° C.) and centrifuged at 49,000×g×10 min.
The pellet is then resuspended in the same buffer, incubated at 37° C. for 45 min. and centrifuged again. 1.9ml of the final homogenate (1:100 in Tris-pH 7.4, 0° C.) is used for the binding assay.
The filters are then dryed, solubilized in Filtercount and the radioactivity monitored. Non specific binding
is determined in the presence of 10-6M Naloxone.

[3] = biological target: T2, KAPPA opiate receptor (Cavia porcellus, UniProt P41144); assay: opiate receptors binding, KAPPA (3H-Ethyl Ketocyclazocine, guinea pig brain homogenate)
T2 construct: fresh guinea pig brain homogenate; from tissue; host or cells: guinea pig whole brain without cerebellum, fresh homogenate
Protocol: Radio receptor binding to μ and K sites is performed on fresh guinea pig brain homogenate prepared according to Kosterlitz. (1981).
as §1
The pellet is then resuspended in the same buffer, incubated at 37° C. for 45 min. and centrifuged again. 1.9ml of the final homogenate (1:100 in Tris-pH 7.4, 0° C.) is used for the binding assay. Binding to […] sites (Magnan J., 1982) 1 3H [D-Ala2, MePhe4, Gly-o15]Enkephalin (3H-DAGO), an
is determined in the presence of 10-6M Naloxone. 1 Binding to K sites (Magnan J., 1982)
The binding to the K-sites is performed using 3H-Ethyl Ketocyclazocine, a non-selective benzomorphan compound which binds to μ, δ and K-sites, in the presence of 100nM of unlabelled DAGO and 100nM of the enkephalin analogue [DAla^2 -DLeu^5 ]Enkephalin (DADLE), to prevent μ and δ binding respectively.
Final homogenate with solutions of the cold ligand and of the labelled ligand is incubated for 40 min. at 25° C., filtered through Whatman GF/C glass filter discs and washed.
The radioactivity bound to the filters is counted by liquid scintillation spectrophotometry.
The non-specific binding is determined in the presence of 500nM of the benzomorphan non-selective compound Mr 2266.
The equilibrium dissociation constant (KD) and the maximum binding capacity (Bmax) are determined from the analysis of saturation curves, while the inhibition constant (Ki) is determined from the analysis of competition experiments (Hill 1910; Scatchard 1949; Cheng and Prusoff 1973; Gillan et al. 1980).

[4] = test system: mice; assay: p-phenylquinone-induced abdominal writhing test in mice; assay type: in vivo, mouse (male Charles River, Swiss Strain); settings: Mus musculus, sc, 20 min; subcutaneous; calculated as the free base; 20 min pretreatment, p-phenylquinone 2 mg/Kg i.p.
Protocol: (A) P-phenylquinone-induced abdominal writhing test in mice
The methodology employed is based on that described by Sigmund et al, Proc. Soc. Exptl. Biol. 95, 729/1957, modified by Milne and Twomey, Agents and Actions, 10, 31/1980.
Male Charles River mice (Swiss Strain), 25-36g body weight, were used. Animals were allowed food and water ad libitum and were randomized into groups of 10 prior to experimentation. Test compounds were dissolved in either distilled water or distilled water plus 0.1 M AMS, and administered by the subcutaneous route in a final volume of 10 ml/Kg. Control animals received 10 ml/Kg of the appropriate vehicle alone. Following a pretreatment period of 20 min., mice were injected intraperitoneally with p-phenylquinone, 2 mg/Kg at 37° C. in a final volume of […]. […] During this period the number of abdominal writhing responses per animal were recorded where writhing consists of an intermittent contraction of the abdomen associated with hind leg extension.
The degree of antinociceptive protection afforded by the test compound was determined as the mean number of writhing responses observed in the treated group (T) expressed as a percentage of the mean number of writhing responses in the control group (C) according to the following formula:
[1-(T/C]×100%=% graded protection

[5] = read-out: OPIATE RECEPTORS BINDING MU Ki, fresh guinea pig brain homogenate, 25° C., 40 min
[6] = fresh guinea pig brain homogenate, 3H-Ethyl Ketocyclazocine with 100nM DAGO and 100nM DADLE, 25° C., 40 min, read-out: OPIATE RECEPTORS BINDING KAPPA Ki
[7] = fresh guinea pig brain homogenate, 25° C., 40 min, read-out: OPIATE RECEPTORS BINDING MU Ki

T2 sequence (P41144 whole entry): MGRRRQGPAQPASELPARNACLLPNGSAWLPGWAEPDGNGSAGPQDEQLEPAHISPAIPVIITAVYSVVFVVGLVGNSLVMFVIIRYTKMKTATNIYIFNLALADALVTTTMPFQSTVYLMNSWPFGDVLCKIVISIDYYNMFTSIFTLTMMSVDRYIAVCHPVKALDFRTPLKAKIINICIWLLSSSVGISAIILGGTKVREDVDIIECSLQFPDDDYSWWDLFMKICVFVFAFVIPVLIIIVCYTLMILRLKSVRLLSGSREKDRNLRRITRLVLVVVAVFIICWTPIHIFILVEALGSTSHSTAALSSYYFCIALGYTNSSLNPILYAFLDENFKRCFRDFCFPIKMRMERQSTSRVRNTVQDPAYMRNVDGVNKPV
T1 sequence (A0ACM8Q262 1-400): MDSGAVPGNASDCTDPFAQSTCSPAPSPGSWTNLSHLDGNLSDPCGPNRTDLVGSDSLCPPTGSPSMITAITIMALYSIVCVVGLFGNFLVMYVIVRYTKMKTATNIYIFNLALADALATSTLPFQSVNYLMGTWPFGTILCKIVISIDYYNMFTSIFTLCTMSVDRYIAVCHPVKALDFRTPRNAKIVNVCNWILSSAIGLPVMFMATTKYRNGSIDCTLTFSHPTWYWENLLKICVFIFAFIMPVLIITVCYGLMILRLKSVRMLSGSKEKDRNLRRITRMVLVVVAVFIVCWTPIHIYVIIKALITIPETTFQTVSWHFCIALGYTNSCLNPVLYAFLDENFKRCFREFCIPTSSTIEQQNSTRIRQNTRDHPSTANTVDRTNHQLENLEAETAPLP

## C[C@@H]1Cc2ccccc2[C@H](CN2CCCC2)N1C(=O)Cc1ccc(Cl)c(Cl)c1 (relative stereo) [Example 1, 1-(pyrrolidin-1-yl)methyl-2-(3,4-dichlorophenyl)acetyl-3-methyl-1,2,3,4-tetrahydroisoquinoline hydrochloride 1/3 hydrate. Diastereoisomer CIS]
[1]
  ED50: 0.033 mg/kg
[2]; [5]
  Ki: 14.9 nM
[3]; [6]
  Ki: 2.65 nM
[4]
  ED50: 0.021 mg/kg

## C[C@@H]1CN(C(=O)Cc2ccc(Cl)c(Cl)c2)[C@@H](CN2CCCC2)c2ccccc21 (relative stereo) [Example 3, 1-(pyrrolidin-1-yl)methyl-2-(3,4-dichlorophenyl)acetyl-4-methyl-1,2,3,4-tetrahydroisoquinoline hydrochloride. Diastereoisomer TRANS]
[1]
  ED50: 0.046 mg/kg
[2]; [5]
  Ki: 122 nM
[3]; [6]
  Ki: 4.79 nM
[4]
  ED50: 0.036 mg/kg

## C[C@H]1CN(C(=O)Cc2ccc(Cl)c(Cl)c2)[C@@H](CN2CCCC2)c2ccccc21 (relative stereo) [Example 4, 1-(pyrrolidin-1-yl)methyl-2-(3,4-dichlorophenyl)acetyl-4-methyl-1,2,3,4-tetrahydroisoquinoline hydrochloride. Diastereoisomer CIS]
[1]
  ED50: 0.459 mg/kg
[2]; [5]
  Ki: 1150 nM
[3]; [6]
  Ki: 14 nM
[4]
  ED50: 0.282 mg/kg

## CC1Cc2ccccc2C(CN2CCCC2)N1C(=O)Cc1ccc(Cl)c(Cl)c1 (single isomer, unassigned) [Example 42, (-)-1-(pyrrolidin-1-yl)methyl-2-(3,4-dichlorophenyl)acetyl-3-methyl-1,2,3,4-tetrahydroisoquinoline D(-) tartrate]
[1]
  ED50: 0.021 mg/kg
[2]; [5]
  Ki: 11.1 nM
[3]; [6]
  Ki: 2.23 nM
[4]
  ED50: 0.01 mg/kg

## O=C(Cc1ccc(Cl)c(Cl)c1)N1CCc2c(O)cccc2C1CN1CCCC1 (stereo not drawn) [Example 5, 1-(pyrrolidin-1-yl)methyl-2-(3,4-dichlorophenyl)acetyl-5-hydroxy-1,2,3,4-tetrahydroisoquinoline]
[1]
  ED50: 0.009 mg/kg
[2]; [5]
  Ki: 0.69 nM
[3]; [6]
  Ki: 0.423 nM
[4]
  ED50: 0.005 mg/kg

## COc1cccc2c1CCN(C(=O)Cc1ccc(Cl)c(Cl)c1)C2CN1CCCC1 (stereo not drawn) [Example 6, 1-(pyrrolidin-1-Yl)methyl-2-(3,4-dichlorophenyl)acetyl-5-methoxy-1,2,3,4-tetrahydroisoquinoline]
[1]
  ED50: 0.054 mg/kg
[2]; [7]
  Ki: 277 nM
[3]
  Ki: 4.01 nM
[4]
  ED50: 0.047 mg/kg

## CN(C)CC1c2cccc(O)c2CCN1C(=O)Cc1ccc(Cl)c(Cl)c1 (stereo not drawn) [Example 10, 1-dimethylaminomethyl-2-(3,4-dichlorophenyl) acetyl-5-hydroxy-1,2,3,4-tetrahydroisoquinoline.]
[1]
  ED50: 0.088 mg/kg
[2]; [5]
  Ki: 3.67 nM
[3]; [6]
  Ki: 0.42 nM

## O=C(Cc1ccc(Cl)c(Cl)c1)N1CCc2cc(O)ccc2C1CN1CCCC1 (stereo not drawn) [Example 16, 1-(pyrrolidin-1-yl)methyl-2-(3,4-dichlorophenyl)acetyl-6-hydroxy-1,2,3,4-tetrahydroisoquinoline.]
[1]
  ED50: 0.24 mg/kg
[2]; [7]
  Ki: 102 nM
[3]
  Ki: 1.54 nM

## O=C(Cc1ccc(Cl)c(Cl)c1)N1CCc2cccc(Cl)c2C1CN1CCCC1 (stereo not drawn) [Example 27, 1-(pyrrolidin-1-yl)methyl-2-(3,4-dichlorophenyl)acetyl-8-chloro-1,2,3,4-tetrahydroisoquinoline hydrochloride 1/4hydrate]
[1]
  ED50: 0.092 mg/kg
[2]; [7]
  Ki: 369 nM
[3]
  Ki: 5.46 nM
